Source: US20200222564A1, “Compound Amphiphilic Peptide Nanomicelle, Preparation and Use Thereof” (Tianjin University, priority 2019, published 2020)

System: CNE-2Z cells
Assay: CCK-8 cytotoxicity in CNE-2Z cells
Assay type: cell-based
Conditions: 0-100 μg/mL, 24 h in the dark
Protocol: First of all, the designed concentration (0, 20, 40, 60, 80 and 100 μg/mL) solution of nanomicelle and rose bengal were prepared with 1640 medium. CNE-2Z cells were seeded into a 96-well player at a density of 2×10^4 cells per well. Each sample with a certain concentration was added to 5 wells. The cytotoxicity of the pure rose bengal and the nanomicelle solution at different concentrations was compared. After culturing for 48 hours, the cells were grown to 80%, and the medium containing different volumes of nanomicelle and rose bengal solution was added instead of the original medium according to the experimental group setting. After an additional incubation for 24 h at 37° C. in the dark, fresh medium (100 μL) together with CCK-8 (10 μL) was added followed by […] on a microplate reader at a wavelength of 450 nm. Cell viability was calculated according to the formula, with the maximum and minimum of OD values excluded:
Cell Viability=average of (OD−ODblk)/average of (OD0−ODblk)×100%

O=C([O-])c1c(Cl)c(Cl)c(Cl)c(Cl)c1-c1c2cc(I)c(=O)c(I)c-2oc2c(I)c([O-])c(I)cc12.[Na+].[Na+] [Rose Bengal]
toxicity to CNE-2Z cells: less toxic
